Values joined by “and” are separate entries in the source; they are usually repeats but may differ in a detail not shown here. Identical values can stand only once. Inconclusive results are not listed.
Tested on: BDF1 mice, colon carcinoma 38 sc, T/C %
Experiment: NCI In Vivo Anticancer Drug Screen. Data for tumor model Colon Carcinoma 38 (subcutaneous) in B6D2F1 (BDF1) mice
Experimental: The antitumor activity of compounds was measured in mice bearing transplantable tumors. Survival or tumor size were measured and the results are expressed as the measurement made in the treated group (T) divided by the measurement made in the vehicle treated control group (C). The tumor model used in this assay is Colon Carcinoma 38 (subcutaneous) in B6D2F1 (BDF1) mice

COC12C(COC(N)=O)C3=C(C(=O)C(C)=C(N)C3=O)N1CC1C2N1C (stereo not given)
T/C (endpoint: median tumor weight (est.), dose: 2.0 mg/kg/injection, schedule: Q07DX002 (ip), vehicle: saline, higher = larger tumour): 93 % of control
T/C (endpoint: median tumor weight (est.), dose: 4.0 mg/kg/injection, schedule: Q07DX002 (ip), vehicle: saline, higher = larger tumour): 87 % of control
T/C (endpoint: median tumor weight (est.), dose: 8.0 mg/kg/injection, schedule: Q07DX002 (ip), vehicle: saline, higher = larger tumour): 100 % of control
T/C (endpoint: median tumor weight (est.), dose: 16.0 mg/kg/injection, schedule: Q07DX002 (ip), vehicle: saline, higher = larger tumour): 55 % of control
T/C (endpoint: median tumor weight (est.), dose: 32.0 mg/kg/injection, schedule: Q07DX002 (ip), vehicle: saline, higher = larger tumour): 11 % of control
T/C (endpoint: median tumor weight (est.), dose: 64.0 mg/kg/injection, schedule: Q07DX002 (ip), vehicle: saline, higher = larger tumour): 12 % of control

O=C1c2c(O)ccc(O)c2C(=O)c2c(NCCNCCO)ccc(NCCNCCO)c21
T/C (endpoint: median survival time, dose: 1.0 mg/kg/injection, schedule: Q04DX004 (ip), vehicle: acid diluted with saline, higher = longer survival): 96 % of control
T/C (endpoint: median survival time, dose: 2.3 mg/kg/injection, schedule: Q07DX004 (iv), vehicle: water, higher = longer survival): 153 % of control
T/C (endpoint: median survival time, dose: 3.7 mg/kg/injection, schedule: Q07DX004 (iv), vehicle: water, higher = longer survival): 176 % of control
T/C (endpoint: median survival time, dose: 4.0 mg/kg/injection, schedule: Q04DX004 (ip), vehicle: acid diluted with saline, higher = longer survival): 117 % of control
T/C (endpoint: median survival time, dose: 6.0 mg/kg/injection, schedule: Q07DX004 (iv), vehicle: water, higher = longer survival): 199 % of control
T/C (endpoint: median tumor weight (est.), dose: 0.5 mg/kg/injection, schedule: Q07DX002 (ip), vehicle: water, higher = larger tumour): 92 % of control and 100 % of control and 102 % of control
T/C (endpoint: median tumor weight (est.), dose: 1.0 mg/kg/injection, schedule: Q07DX002 (ip), vehicle: acid diluted with saline, higher = larger tumour): 76 % of control
T/C (endpoint: median tumor weight (est.), dose: 2.0 mg/kg/injection, schedule: Q07DX002 (ip), vehicle: acid diluted with saline, higher = larger tumour): 49 % of control
T/C (endpoint: median tumor weight (est.), dose: 3.0 mg/kg/injection, schedule: Q07DX003 (ip), vehicle: saline with Tween-80, higher = larger tumour): 72 % of control
T/C (endpoint: median tumor weight (est.), dose: 3.0 mg/kg/injection, schedule: Q07DX003 (iv), vehicle: acid diluted with saline, higher = larger tumour): 11 % of control
T/C (endpoint: median tumor weight (est.), dose: 4.0 mg/kg/injection, schedule: Q07DX002 (ip), vehicle: acid diluted with saline, higher = larger tumour): 55 % of control

Cc1c2ccccc2c(C)c2c1cc(C(=O)O)c1ccccc12
T/C (endpoint: median tumor weight (est.), dose: 62.5 mg/kg/injection, schedule: Q07DX002 (ip), vehicle: other, higher = larger tumour): 67 % of control
T/C (endpoint: median tumor weight (est.), dose: 125.0 mg/kg/injection, schedule: Q07DX002 (ip), vehicle: other, higher = larger tumour): 101 % of control
T/C (endpoint: median tumor weight (est.), dose: 250.0 mg/kg/injection, schedule: Q07DX002 (ip), vehicle: other, higher = larger tumour): 152 % of control
T/C (endpoint: median tumor weight (est.), dose: 500.0 mg/kg/injection, schedule: Q07DX002 (ip), vehicle: other, higher = larger tumour): 58 % of control
T/C (endpoint: median tumor weight (est.), dose: 1000.0 mg/kg/injection, schedule: Q07DX002 (ip), vehicle: other, higher = larger tumour): 87 % of control

CC1CN=C(c2ccc(NC(=O)c3ccc(C(=O)Nc4ccc(C5=NCC(C)N5)cc4)cc3)cc2)N1 (stereo not given)
T/C (endpoint: median tumor weight (est.), dose: 12.5 mg/kg/injection, schedule: Q07DX003 (ip), vehicle: Klucel (hydroxypropylcellulose) (HPC), higher = larger tumour): 78 % of control and 79 % of control
T/C (endpoint: median tumor weight (est.), dose: 25.0 mg/kg/injection, schedule: Q07DX003 (ip), vehicle: Klucel (hydroxypropylcellulose) (HPC), higher = larger tumour): 115 % of control and 102 % of control
T/C (endpoint: median tumor weight (est.), dose: 200.0 mg/kg/injection, schedule: Q07DX003 (ip), vehicle: Klucel (hydroxypropylcellulose) (HPC), higher = larger tumour): 86 % of control
T/C (endpoint: median tumor weight (est.), dose: 400.0 mg/kg/injection, schedule: Q07DX003 (ip), vehicle: Klucel (hydroxypropylcellulose) (HPC), higher = larger tumour): 63 % of control

COc1ccc(-c2cc(=O)c3cccc(CC(=O)O)c3o2)cc1
T/C (endpoint: median tumor weight (est.), dose: 100.0 mg/kg/injection, schedule: Q07DX002 (ip), vehicle: saline with Tween-80, higher = larger tumour): 84 % of control
T/C (endpoint: median tumor weight (est.), dose: 200.0 mg/kg/injection, schedule: Q07DX002 (ip), vehicle: saline with Tween-80, higher = larger tumour): 113 % of control

COc1cccc2c1C(=N)c1c(O)c3c(c(O)c1C2=O)C[C@@](O)(C(C)=O)C[C@@H]3OC1CC(N)C(O)C(C)O1 (stereo not given in full)
T/C (endpoint: median tumor weight (est.), dose: 2.25 mg/kg/injection, schedule: Q07DX002 (ip), vehicle: saline, higher = larger tumour): 71 % of control
T/C (endpoint: median tumor weight (est.), dose: 4.5 mg/kg/injection, schedule: Q07DX002 (ip), vehicle: saline, higher = larger tumour): 115 % of control
T/C (endpoint: median tumor weight (est.), dose: 9.0 mg/kg/injection, schedule: Q07DX002 (ip), vehicle: saline, higher = larger tumour): 99 % of control

COc1cc2c3c(cccc3c1)C(=O)N(CCN(C)C)C2=O
T/C (endpoint: median tumor weight (est.), dose: 10.0 mg/kg/injection, schedule: Q07DX002 (ip), vehicle: saline with Tween-80, higher = larger tumour): 86 % of control and 103 % of control
T/C (endpoint: median tumor weight (est.), dose: 40.0 mg/kg/injection, schedule: Q07DX002 (ip), vehicle: saline with Tween-80, higher = larger tumour): 73 % of control and 92 % of control
T/C (endpoint: median tumor weight (est.), dose: 80.0 mg/kg/injection, schedule: Q07DX002 (ip), vehicle: saline with Tween-80, higher = larger tumour): 72 % of control
T/C (endpoint: median tumor weight (est.), dose: 160.0 mg/kg/injection, schedule: Q07DX002 (ip), vehicle: saline with Tween-80, higher = larger tumour): 73 % of control
